Data published in US20040105860A1, “Cell modulation using a cytoskeletal protein” (priority 2002, published 2004).

How the values were obtained:
cyclin A mRNA = assay: Ribonuclease protection assay (RPA) of cyclin A mRNA expression in EC; assay type: cell-based, Bovine; conditions: pre-treatment of EC with Y27632
Method: FIGS. 1A-D are explained in more detail as follows. Synchronized ECs were serum stimulated in the presence or absence of TNF for indicated times. Total cellular RNA was isolated and was analyzed by RPA for cyclin A, cyclin B and cyclin D1 expression. A representative autoradiograph is shown (FIG. 1A). mRNA expression of cyclins was corrected to that of GAPDH and quantified by densitometric analysis (FIGS. 1B-D). Data represent average of 3 similar experiments.
FIGS. 12A-C are explained in more detail as follows. (FIG. 12A) Representative PCR gel photograph showing amplification of 200 bp cyclin A promoter emcompassing CHR elements from ant-ezrin antibody immunoprecipitated chromatin. (FIG. 12B) BAECs co-transfected with cyclin A promoter-reporter construct and either wt or dnEzrin constructs and cultured in presence or absence of TNF for 24 h before were analyzed for luciferase activity. Bar graph represents average promoter activity from 3 similar experiments (*p<0.01). (FIG. 12C) Total RNA from empty vector wt or dnEzrin transfected cells under control or TNF-treatment conditions was evaluated for cyclin A mRNA expression by ribonuclease protection assays. Representative autoradiograph is shown.
3. […]

[1] = tested on: CDE-CHR elements of the cyclin A promoter; assay: EMSA of EC nuclear extracts with CDE-CHR / CHR oligonucleotides; assay type: cell-based, Bovine
EC proliferation = assay: Thymidine uptake assay, EC proliferation; assay type: cell-based, Bovine
Method: Having documented TNF-induced nuclear translocation and the ability of ezrin to bind to cyclin A CHR elements, the functional consequences of TNF-mediated ezrin modulation in EC was determined. To evaluate the effect of ezrin over-expression in the presence of TNF on cell proliferation, EC were transiently transfected with either wtEzrin or dnEzrin expression vectors. Cells were treated or not with TNF and BrdU (50 μg/mL) was added to all cultures for 6 hours. […] Tritiated thymidine uptake assays were performed as an independent measure of cell proliferation in similarly transfected and treated cells and corroborated the findings of BrdU incorporation (FIG. 11C).
FIGS. 11A-E are explained in more detail as follows. Quiescent BAECs transiently transfected with empty vector, wild type and dominant negative ezrin were cultured in the absence (control) or presence of 20 ng/mL TNF for 24 hrs. Cells were labeled with BrdU (50 μg/mL) for last 6 hrs of culture. […] BrdU positive cells were counted in at least 6 different visual fields. […]
To provide further evidence that the improvement in EC function attained by inhibition of ROCK-2 was mediated by ezrin, we performed rescue experiments. EC transiently transfected with wtEzrin and treated with TNF were co-treated with increasing doses of Y27632 and cell proliferation was determined by thymidine incorporation.

RhoA kinase (ROCK-2) = RhoA kinase (ROCK-2) (Bos taurus, UniProt Q28021); assay: Western blot for ROCK-2 in EC lysates; assay type: cell-based, Bovine; conditions: co-treatment with Y27632 20 micromolar at the time of TNF exposure
Chain of RhoA kinase (ROCK-2) (Q28021 whole entry): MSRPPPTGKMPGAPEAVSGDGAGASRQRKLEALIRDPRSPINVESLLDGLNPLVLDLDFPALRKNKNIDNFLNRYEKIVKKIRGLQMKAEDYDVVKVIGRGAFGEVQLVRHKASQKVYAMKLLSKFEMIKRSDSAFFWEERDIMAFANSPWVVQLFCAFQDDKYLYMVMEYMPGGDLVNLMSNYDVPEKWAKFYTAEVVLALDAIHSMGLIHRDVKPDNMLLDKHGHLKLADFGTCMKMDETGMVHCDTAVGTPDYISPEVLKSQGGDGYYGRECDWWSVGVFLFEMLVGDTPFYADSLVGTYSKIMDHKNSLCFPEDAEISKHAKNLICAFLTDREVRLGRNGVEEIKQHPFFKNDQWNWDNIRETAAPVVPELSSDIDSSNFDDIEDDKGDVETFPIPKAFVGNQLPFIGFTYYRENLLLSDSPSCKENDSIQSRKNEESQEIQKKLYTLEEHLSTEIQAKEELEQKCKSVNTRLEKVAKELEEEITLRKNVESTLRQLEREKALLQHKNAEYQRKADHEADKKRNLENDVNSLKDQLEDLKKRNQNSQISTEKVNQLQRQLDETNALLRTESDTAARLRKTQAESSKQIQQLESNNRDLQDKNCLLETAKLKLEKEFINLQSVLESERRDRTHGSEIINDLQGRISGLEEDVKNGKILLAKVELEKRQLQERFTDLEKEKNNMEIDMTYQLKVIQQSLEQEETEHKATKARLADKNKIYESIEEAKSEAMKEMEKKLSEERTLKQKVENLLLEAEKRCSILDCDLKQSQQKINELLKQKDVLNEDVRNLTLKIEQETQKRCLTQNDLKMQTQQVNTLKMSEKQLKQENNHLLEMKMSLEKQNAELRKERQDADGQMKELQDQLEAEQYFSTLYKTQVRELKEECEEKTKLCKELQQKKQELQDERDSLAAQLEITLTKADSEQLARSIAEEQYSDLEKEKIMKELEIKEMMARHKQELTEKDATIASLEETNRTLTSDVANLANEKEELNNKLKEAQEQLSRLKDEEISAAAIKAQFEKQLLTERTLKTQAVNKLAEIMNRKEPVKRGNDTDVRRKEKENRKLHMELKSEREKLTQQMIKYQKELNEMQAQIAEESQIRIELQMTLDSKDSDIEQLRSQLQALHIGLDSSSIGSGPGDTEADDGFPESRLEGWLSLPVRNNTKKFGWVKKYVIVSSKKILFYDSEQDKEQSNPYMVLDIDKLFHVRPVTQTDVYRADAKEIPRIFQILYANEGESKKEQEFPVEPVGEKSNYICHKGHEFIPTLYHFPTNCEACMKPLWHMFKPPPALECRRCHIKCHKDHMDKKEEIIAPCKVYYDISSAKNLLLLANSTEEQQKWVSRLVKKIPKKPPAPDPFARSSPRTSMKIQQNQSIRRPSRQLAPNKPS

ezrin phosphorylation = assay: Western blot for phospho-ezrin in EC lysates; assay type: cell-based, Bovine; conditions: Y27632 20 μM, all experimental time points
cyclin A CHR elements = assay: South-western analysis and UV cross-linking of nuclear proteins with CDE-mCHR or mCDE-CHR probes; assay type: cell-based, Bovine; conditions: cycloheximide 5 μg/mL along with TNF
From the text: Nuclear proteins from asynchronously growing BAEC with or without TNF were probed with ^32P-labeled CDE-mCHR or mCDE-CHR oligonucleotides.
To confirm that 84 kDa protein in TNF treated extracts identified in FIGS. 8A-B, does bind to CHR elements, we performed UV cross-linking experiments. EMSA reactions were assembled as before followed by UV cross-linking. The reactions were then boiled in SDS loading buffer and resolved on 12% SDS-PAGE. In reactions probed with CDE-mCHR the 35-kDa protein seen before was observed again (FIGS. 8C-D). In reactions probed with mCDE-CHR probe, the previously identified (FIGS. 8A-B) 39-kDa protein was found cross-linked to oligonucleotide. Similarly, the 84-kDa protein from TNF treated extract cross-linked with mCDE-CHR probe, further confirming the southwestern results.
FIGS. 8A-E are explained in more detail as follows. FIGS. 8A-B. Representative autoradiograph of south-western analysis. Nuclear proteins from asynchronously growing EC with or with out TNF treatment were size fractionated on a 12% SDS-PAGE gel, transferred to PVDF membrane and renatured. Membranes were then incubated with radio-labeled CDE-mCHR or mCDE-CHR oligonucleotide. Membranes were washed, air dried and autoradiographed. […]

[2] = tested on: CHR oligonucleotides (cyclin A promoter); assay: EMSA of recombinant protein with CHR oligonucleotides; assay type: binding; conditions: recombinant protein 1 μg
From the text: Nuclear extracts from control and TNF-treated EC were mixed with biotin-labeled CHR oligonucleotides and the bound proteins were captured on avidin-agarose beads. Eluted proteins from beads were subjected to Western blot analysis for ezrin. […] Specificity of CHR-ezrin binding was further confirmed by EMSA assays using recombinant-ezrin protein (GST-ezrin). […] We next evaluated the effect of TNF-induced ezrin binding to cyclin A-CHR by dominant-negative ezrin over-expression. EC were transiently transfected with wild-type (wtEzrin) and dominant negative (dnEzrin) ezrin expression vector. […] That TNF-induced modulation of ezrin up-regulates CHR-binding activity was further evident from ezrin immunodepletion experiments. Endogenous ezrin was immunodepleted from control and TNF-treated nuclear extracts by treating extracts with anti-ezrin antibodies over 5 rounds. Immunodepleted extracts were then analyzed by EMSA for CHR-binding activity.
FIGS. 9A-D are explained in more detail as follows. […] Eluted proteins from beads were analyzed for ezrin protein in western blots. […] (FIG. 9C) Nuclear extracts from control and TNF-treated BAECs, transfected with wild type or dominant negative ezrin, were evaluated CHR binding activity in EMSAs. […] Depleted extracts alone or depleted extracts from TNF treated cells reconstituted with GST-ezrin were then analyzed for CHR binding activity. […]

## C[C@@H](N)[C@H]1CC[C@H](C(=O)Nc2ccncc2)CC1 [Y27632]
Cyclin A mRNA
  TNF-mediated inhibition of cyclin A mRNA expression: reversed
[1]; nuclear extracts from EC co-treated with TNF and Y27632
  TNF-induced CHR binding activity: significantly reduced
EC proliferation; EC transfected with wtEzrin, treated with TNF, increasing doses of Y27632
  ezrin/TNF mediated inhibition of EC proliferation: dose dependently reversed
EC proliferation; treatment of EC with Y27632 in the presence of TNF
  inhibitory effect of TNF on EC proliferation: partially abrogated
RhoA kinase (ROCK-2)
  ROCK-2 induction by TNF: completely abolished
Ezrin phosphorylation
  TNF-induced ezrin phosphorylation: completely inhibited

## C[C@@H]1C[C@@H]([C@H](O)CC2CC(=O)NC(=O)C2)C(=O)[C@@H](C)C1 [cycloheximide]
Cyclin A CHR elements
  induction of 84-kDa protein by TNF: failed to induce the protein

## Recombinant ezrin: Recombinant human ezrin protein (GST-ezrin)
[2]
  complex formation with CHR oligonucleotides: formed complex
[1]; recombinant ezrin added back to the depleted TNF-extract
  CHR-binding activity of ezrin-immunodepleted TNF-extract: significantly increased

B1: recombinant-DP1 protein: control recombinant-DP1 protein used in EMSA (protein, UniProt Q14186 1-410, looked up)
Transcription factor Dp-1: MAKDAGLIEANGELKVFIDQNLSPGKGVVSLVAVHPSTVNPLGKQLLPKTFGQSNVNIAQQVVIGTPQRPAASNTLVVGSPHTPSTHFASQNQPSDSSPWSAGKRNRKGEKNGKGLRHFSMKVCEKVQRKGTTSYNEVADELVAEFSAADNHILPNESAYDQKNIRRRVYDALNVLMAMNIISKEKKEIKWIGLPTNSAQECQNLEVERQRRLERIKQKQSQLQELILQQIAFKNLVQRNRHAEQQASRPPPPNSVIHLPFIIVNTSKKTVIDCSISNDKFEYLFNFDNTFEIHDDIEVLKRMGMACGLESGSCSAEDLKMARSLVPKALEPYVTEMAQGTVGGVFITTAGSTSNGTRFSASDLTNGADGMLATSSNGSQYSGSRVETPVSYVGEDDEEDDDFNENDEDD
[2]
  complex formation with CHR oligonucleotides: did not form the complex
